Measured values taken from PubChem BioAssay AID330 (DTP/NCI, 2004).
Several values for one entry are separate records, joined by “and”; a condition that tells them apart may be missing. Equal entries are not always repeated. Inconclusive results and toxic doses are left out. How the source made its calls: active means survival T/C of 150% or more; inactive means T/C below 125% in these data.

System: P388 leukemia ip, CD2F1 mice, survival T/C
Experiment: NCI In Vivo Anticancer Drug Screen. Data for tumor model P388 Leukemia (intraperitoneal) in CD2F1 (CDF1) mice
Settings: endpoint: median survival time, higher = longer survival
Outline: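 Mice carrying the transplanted tumor received test compound or vehicle. Survival was recorded in each group, and the value is the treated-group measurement divided by that of the vehicle-treated control group.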

[1] = dose: 6.25 mg/kg/injection, schedule: Q01DX005 (ip), vehicle: Klucel (hydroxypropylcellulose) (HPC)
[2] = dose: 50.0 mg/kg/injection, schedule: Q01DX005 (ip), vehicle: Klucel (hydroxypropylcellulose) (HPC)
[3] = dose: 50.0 mg/kg/injection, schedule: Q01DX005 (ip), vehicle: saline with Tween-80
[4] = dose: 50.0 mg/kg/injection, schedule: Q01DX009 (ip), vehicle: saline
[5] = dose: 100.0 mg/kg/injection, schedule: Q01DX005 (ip), vehicle: saline with Tween-80
[6] = dose: 100.0 mg/kg/injection, schedule: Q01DX009 (ip), vehicle: saline
[7] = dose: 200.0 mg/kg/injection, schedule: Q01DX005 (ip), vehicle: saline with Tween-80
[8] = dose: 200.0 mg/kg/injection, schedule: Q01DX009 (ip), vehicle: saline
[9] = dose: 60.0 mg/kg/injection, schedule: Q01DX005 (ip), vehicle: saline with Tween-80
[10] = dose: 120.0 mg/kg/injection, schedule: Q01DX005 (ip), vehicle: saline with Tween-80
[11] = dose: 50.0 mg/kg/injection, schedule: Q01DX009 (ip), vehicle: saline with Tween-80
[12] = dose: 100.0 mg/kg/injection, schedule: Q01DX009 (ip), vehicle: saline with Tween-80
[13] = dose: 200.0 mg/kg/injection, schedule: Q01DX009 (ip), vehicle: saline with Tween-80
[14] = dose: 400.0 mg/kg/injection, schedule: Q01DX009 (ip), vehicle: saline with Tween-80
[15] = dose: 240.0 mg/kg/injection, schedule: Q01DX005 (ip), vehicle: saline with Tween-80
[16] = dose: 100.0 mg/kg/injection, schedule: Q01DX005 (ip), vehicle: Klucel (hydroxypropylcellulose) (HPC)
[17] = dose: 200.0 mg/kg/injection, schedule: Q01DX005 (ip), vehicle: Klucel (hydroxypropylcellulose) (HPC)
[18] = dose: 50.0 mg/kg/injection, schedule: Q01DX009 (ip), vehicle: suspension in saline
[19] = dose: 25.0 mg/kg/injection, schedule: Q01DX009 (ip), vehicle: saline

Measured: T/C

CCc1nc(N)nc(N)c1-c1ccc(N(C)C)cc1
inactive: [1] 97 % of control | dose: 12.5 mg/kg/injection, schedule: Q01DX005 (ip), vehicle: Klucel (hydroxypropylcellulose) (HPC) 98 % of control | dose: 25.0 mg/kg/injection, schedule: Q01DX005 (ip), vehicle: Klucel (hydroxypropylcellulose) (HPC) 96 % of control | [2] 95 % of control

Cc1ccc(NCC2CCCN3CCCCC23)c2c(=O)c3ccccc3sc12 (stereo unspecified)
inactive: [3] 101 % of control | [4] 97 % of control | [5] 96 % of control | [6] 99 % of control | [7] 106 % of control | [8] 124 % of control

Nc1nnc(COc2ccc(Cl)cc2)n1N
inactive: [9] 107 % of control | [10] 108 % of control

O=C1c2cccnc2C(=O)c2c(O)ccc(O)c21
inactive: [11] 95 % of control | [12] 95 % of control | [13] 99 % of control | [14] 100 % of control

CC(C)C(C(=O)O)N(C)C(=O)c1cnc2ccccc2n1 (stereo unspecified)
inactive: [9] 104 % of control | [10] 97 % of control | [15] 99 % of control

C=C1C(=O)OC2C1C(OC(=O)C(C)CC)CC1(O)COC3(O)C1C2C1(C)OC13 (stereo unspecified)
inactive: dose: 6.25 mg/kg/injection, schedule: Q01DX001 (ip), vehicle: Klucel (hydroxypropylcellulose) (HPC) 106 % of control | dose: 12.5 mg/kg/injection, schedule: Q01DX001 (ip), vehicle: Klucel (hydroxypropylcellulose) (HPC) 108 % of control | dose: 25.0 mg/kg/injection, schedule: Q01DX001 (ip), vehicle: Klucel (hydroxypropylcellulose) (HPC) 117 % of control and 90 % of control

Cc1cc(CCNC=O)c(C)c2c1oc1ccccc12
inactive: [11] 110 % of control | [12] 103 % of control | [13] 94 % of control | [14] 94 % of control

C=C1CC/C=C(/C)C(=O)C(OC(C)=O)C2C1CC2(C)C (stereo unspecified)
inactive: dose: 1.75 mg/kg/injection, schedule: Q01DX009 (ip), vehicle: saline + Tween-80 + alcohol 105 % of control | dose: 1.75 mg/kg/injection, schedule: Q01DX009 (ip), vehicle: saline + alcohol 105 % of control and 111 % of control | dose: 3.5 mg/kg/injection, schedule: Q01DX009 (ip), vehicle: saline + Tween-80 + alcohol 102 % of control | dose: 3.5 mg/kg/injection, schedule: Q01DX009 (ip), vehicle: saline + alcohol 102 % of control and 103 % of control and 114 % of control | dose: 7.0 mg/kg/injection, schedule: Q01DX009 (ip), vehicle: saline + Tween-80 + alcohol 111 % of control | dose: 7.0 mg/kg/injection, schedule: Q01DX009 (ip), vehicle: saline + alcohol 101 % of control and 105 % of control and 114 % of control | dose: 14.0 mg/kg/injection, schedule: Q01DX009 (ip), vehicle: saline + Tween-80 + alcohol 116 % of control | dose: 14.0 mg/kg/injection, schedule: Q01DX009 (ip), vehicle: saline + alcohol 111 % of control and 113 % of control and 114 % of control | dose: 28.0 mg/kg/injection, schedule: Q01DX009 (ip), vehicle: saline + Tween-80 + alcohol 120 % of control | dose: 28.0 mg/kg/injection, schedule: Q01DX009 (ip), vehicle: saline + alcohol 111 % of control and 115 % of control and 121 % of control | dose: 56.0 mg/kg/injection, schedule: Q01DX009 (ip), vehicle: saline + Tween-80 + alcohol 116 % of control

OCc1ccccc1Cn1ccnc1
inactive: [9] 96 % of control | [10] 93 % of control | [15] 96 % of control

C[N+](C)(C[Si](C)(C)C)C1CCCCCCCCCCC1
inactive: dose: 15.0 mg/kg/injection, schedule: Q01DX005 (ip), vehicle: saline with Tween-80 102 % of control

c1cnc2c3ccncc3c3nc(-c4ccncc4)[nH]c3c2c1
inactive: [2] 91 % of control | [16] 88 % of control | [17] 101 % of control

O=C(O)C1CSC(c2ccc(Cl)cc2)N1 (stereo unspecified)
inactive: [18] 95 % of control | dose: 100.0 mg/kg/injection, schedule: Q01DX009 (ip), vehicle: suspension in saline 95 % of control | dose: 200.0 mg/kg/injection, schedule: Q01DX009 (ip), vehicle: suspension in saline 95 % of control and 96 % of control

CCOC(=O)c1[nH]cc(C)c1-c1ccc(OCc2ccccc2)cc1
inactive: dose: 100.0 mg/kg/injection, schedule: Q01DX001 (ip), vehicle: saline with Tween-80 112 % of control | dose: 200.0 mg/kg/injection, schedule: Q01DX001 (ip), vehicle: saline with Tween-80 94 % of control | dose: 400.0 mg/kg/injection, schedule: Q01DX001 (ip), vehicle: saline with Tween-80 103 % of control

CCOC(=O)OC(C#N)(c1ccc([N+](=O)[O-])cc1)c1nccc2ccccc12 (stereo unspecified)
inactive: dose: 12.5 mg/kg/injection, schedule: Q01DX009 (ip), vehicle: saline 93 % of control | [19] 97 % of control | [18] 87 % of control

NC(=O)C1CCCN(C2OC(COP(=O)(O)OP(=O)(O)OCC3OC(n4cnc5c(=O)[nH]c(N)nc54)C(O)C3O)C(O)C2O)C1 (stereo unspecified)
inactive: [3] 100 % of control | [5] 104 % of control | [7] 100 % of control

O=C1CCCCCCCCCCC1[N+](=O)[O-] (stereo unspecified)
inactive: [3] 95 % of control | [5] 92 % of control | [7] 93 % of control

Nc1ncnc2nc(N=Nc3c(O)ccc4ccccc34)[nH]c12
inactive: [3] 104 % of control | [5] 93 % of control

Cc1ccn2cc(CC(=O)O)nc2c1
inactive: dose: 100.0 mg/kg/injection, schedule: Q01DX001 (ip), vehicle: Klucel (hydroxypropylcellulose) (HPC) 104 % of control | dose: 200.0 mg/kg/injection, schedule: Q01DX001 (ip), vehicle: Klucel (hydroxypropylcellulose) (HPC) 100 % of control | dose: 400.0 mg/kg/injection, schedule: Q01DX001 (ip), vehicle: Klucel (hydroxypropylcellulose) (HPC) 96 % of control

Nc1c(S)cc(O)c2c1C(=O)c1ccccc1C2=O
inactive: [2] 99 % of control | [16] 103 % of control | [17] 107 % of control

CCC[CH2][Hg][O]C(C)=O
inactive: dose: 2.0 mg/kg/injection, schedule: Q01DX009 (ip), vehicle: other 95 % of control | dose: 3.0 mg/kg/injection, schedule: Q01DX009 (ip), vehicle: other 100 % of control | dose: 4.5 mg/kg/injection, schedule: Q01DX009 (ip), vehicle: other 113 % of control

NC(Cc1cc(I)c(O)c(I)c1)C(=O)O (stereo unspecified)
inactive: [11] 110 % of control | [12] 108 % of control | [13] 88 % of control

CCOC(=O)C(=CNc1cccc2c(O)cccc12)C(=O)OCC
inactive: dose: 12.5 mg/kg/injection, schedule: Q01DX005 (ip), vehicle: saline with Tween-80 90 % of control | dose: 25.0 mg/kg/injection, schedule: Q01DX005 (ip), vehicle: saline with Tween-80 93 % of control | [3] 97 % of control | [7] 95 % of control

CCN(CC)CCN(C)C(=O)C(O)(c1ccccc1)c1ccccc1
inactive: [19] 100 % of control | [4] 104 % of control | [6] 104 % of control | [8] 100 % of control

CC(=O)NC1C(=O)OC(C(O)CO)C1O (stereo unspecified)
inactive: dose: 12.5 mg/kg/injection, schedule: Q01DX009 (ip), vehicle: water 106 % of control | dose: 25.0 mg/kg/injection, schedule: Q01DX009 (ip), vehicle: water 91 % of control | dose: 50.0 mg/kg/injection, schedule: Q01DX009 (ip), vehicle: water 94 % of control | dose: 100.0 mg/kg/injection, schedule: Q01DX009 (ip), vehicle: water 102 % of control | dose: 200.0 mg/kg/injection, schedule: Q01DX009 (ip), vehicle: water 98 % of control

C=CCc1cc(Nc2c3ccc(Cl)cc3nc3ccc(OC)cc23)cc(CN(CC)CC)c1O
inactive: dose: 3.12 mg/kg/injection, schedule: Q01DX005 (ip), vehicle: Klucel (hydroxypropylcellulose) (HPC) 106 % of control and 110 % of control | dose: 6.0 mg/kg/injection, schedule: Q01DX005 (ip), vehicle: Klucel (hydroxypropylcellulose) (HPC) 118 % of control | [1] 109 % of control and 110 % of control | dose: 12.0 mg/kg/injection, schedule: Q01DX005 (ip), vehicle: Klucel (hydroxypropylcellulose) (HPC) 123 % of control

S=C(Nc1ccccc1)Nc1ncn[nH]1
inactive: [2] 101 % of control | [16] 100 % of control | [17] 99 % of control

C/C(=N/NC(=O)Cc1ccccc1)C(=NO)/C(C)=N\NC(=O)Cc1ccccc1
inactive: dose: 100.0 mg/kg/injection, schedule: Q04DX002 (ip), vehicle: saline 101 % of control | dose: 200.0 mg/kg/injection, schedule: Q04DX002 (ip), vehicle: saline 108 % of control | dose: 400.0 mg/kg/injection, schedule: Q04DX002 (ip), vehicle: saline 116 % of control
